Columns and labels:
human TLR7 = target: T1, human TLR7 (Homo sapiens, UniProt Q9NYK1); assay: HEK/TLR7 activation assay (R848 stimulation); format: cell-based; details: HEK cells transfected with human TLR7
T1 construct: expressed in transfected cells; host or cells: HEK cell line (HEK293, as in the primary assay)
T1 sequence (Q9NYK1 27-1049): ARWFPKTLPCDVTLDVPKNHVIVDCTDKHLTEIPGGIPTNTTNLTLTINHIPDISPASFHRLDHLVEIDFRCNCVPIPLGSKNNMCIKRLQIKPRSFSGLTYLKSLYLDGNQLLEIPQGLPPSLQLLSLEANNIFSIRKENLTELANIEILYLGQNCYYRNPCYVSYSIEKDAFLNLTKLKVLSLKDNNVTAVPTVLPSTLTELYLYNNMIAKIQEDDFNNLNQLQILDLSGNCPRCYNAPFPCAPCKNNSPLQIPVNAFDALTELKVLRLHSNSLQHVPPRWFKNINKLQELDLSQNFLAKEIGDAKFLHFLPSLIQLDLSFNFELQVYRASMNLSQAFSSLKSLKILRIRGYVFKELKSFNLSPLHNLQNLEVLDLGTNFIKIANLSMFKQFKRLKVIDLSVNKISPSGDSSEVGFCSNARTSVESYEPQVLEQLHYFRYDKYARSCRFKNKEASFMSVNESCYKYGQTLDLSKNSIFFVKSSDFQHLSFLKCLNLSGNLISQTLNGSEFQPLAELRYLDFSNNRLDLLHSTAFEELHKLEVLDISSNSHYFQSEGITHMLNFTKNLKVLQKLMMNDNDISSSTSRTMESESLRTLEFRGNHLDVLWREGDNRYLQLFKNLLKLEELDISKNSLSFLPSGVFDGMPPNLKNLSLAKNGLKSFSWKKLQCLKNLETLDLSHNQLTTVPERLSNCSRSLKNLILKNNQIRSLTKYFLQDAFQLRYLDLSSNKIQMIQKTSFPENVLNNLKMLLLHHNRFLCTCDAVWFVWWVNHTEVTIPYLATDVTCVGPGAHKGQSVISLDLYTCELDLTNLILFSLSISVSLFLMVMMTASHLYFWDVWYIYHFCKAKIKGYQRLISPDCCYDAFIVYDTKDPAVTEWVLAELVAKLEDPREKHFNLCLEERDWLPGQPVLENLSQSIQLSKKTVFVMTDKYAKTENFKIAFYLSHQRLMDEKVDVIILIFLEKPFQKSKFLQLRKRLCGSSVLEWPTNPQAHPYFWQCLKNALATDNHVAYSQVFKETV
Protocol: (1) HEK/TLR7Activation Assay: The same compounds were tested in the same way as the primary assay with the following differences. The plasmid used to transfect the HEK cell line encoded for human TLR7 instead of TLR9, and R848 was used to stimulate the cells instead of Oligo CpG 2006.

[1] = test system: dissociated mouse splenocytes; assay: Spleen CellTiter-Glo viability assay; format: cell-based; details: Splenocyte, 72 hours, viability (ATP)
Protocol: (3) Spleen CT Glo Assay: To determine if compounds had adverse effects on living cells, dissociated mouse splenocytes were incubated with some of the compounds for 72 hours. At the end of the incubation Celliter-Glo™ reagent (Promega Corporation, Madison, Wis.) was added and luminescence was read per manufacturer's instructions. This reagent measures ATP as an indication of cell metabolism. Dead cells will not produce signal. IC50 is defined as the concentration of compound that suppresses viability to 50% of that observed in the absence of compound. The few compounds that measurably affected viability did so at concentrations far above those that affected cytokine release in response to TLR9 stimulation.

| IC50 (human TLR7) | SMILES | IC50 [1] |
| --- | --- | --- |
| 460 nM | c1cc(CN2CCOCC2)ccc1CNCCCOc1ccc(-c2nc3ccc(OCCCNCc4ccc(CN5CCOCC5)cc4)cc3o2)cc1 [Compound 13] | 7070 nM |
| 2210 nM | CN(C)CCCOc1ccc(-c2nc3ccc(OCCCN(C)C)cc3o2)cc1 [Compound 2] | > 10000 nM |
| 430 nM | CN(C)[C@@H]1CCN(CCCOc2ccc(-c3nc4ccc(OCCCN5CC[C@@H](N(C)C)C5)cc4o3)cc2)C1 [Compound 16] | > 10000 nM |
| 500 nM | CN(C)CCN(C)CCCOc1ccc(-c2nc3ccc(OCCCN(C)CCN(C)C)cc3o2)cc1 [Compound 22] | 7110 nM |
| 620 nM | CN1CCCN(CCCOc2ccc(-c3nc4ccc(OCCCN5CCCN(C)CC5)cc4o3)cc2)CC1 [Compound 14] | > 10000 nM |
| 780 nM | CCN(CC)CCNCCCOc1ccc(-c2nc3ccc(OCCCNCCN(CC)CC)cc3o2)cc1 [Compound 12] | > 10000 nM |
| 1820 nM | c1cc(-c2nc3ccc(OCCCN4CCC(N5CCCC5)CC4)cc3o2)ccc1OCCCN1CCC(N2CCCC2)CC1 [Compound 20] | > 10000 nM |
| 980 nM | CN(C)CCCN(C)CCCOc1ccc(-c2nc3ccc(OCCCN(C)CCCN(C)C)cc3o2)cc1 [Compound 27] | 8960 nM |
| 470 nM | CN1CCN(c2ccc(CNCCCOc3ccc(-c4nc5ccc(OCCCNCc6ccc(N7CCN(C)CC7)cc6)cc5o4)cc3)cc2)CC1 [Compound 11] | 10000 nM |
| 440 nM | CCN(CC)CCN(C)CCCOc1ccc(-c2nc3ccc(OCCCN(C)CCN(CC)CC)cc3o2)cc1 [Compound 31] | > 10000 nM |
| 1140 nM | c1cc(-c2nc3ccc(OCCCN4CCCCC4)cc3o2)ccc1OCCCN1CCCCC1 [Compound 30] | > 10000 nM |

| SMILES | IC50 (human TLR7) | IC50 [1] |
| --- | --- | --- |
| c1cc(-c2nc3ccc(OCCCN4CCCC4)cc3o2)ccc1OCCCN1CCCC1 [Compound 23] | 1550 nM | > 10000 nM |

From US8354400B2, “Benzoxazole compounds and methods of use” (Eisai R&D Co., Ltd., priority 2008, dated 2013)
